Data from patent publication US12378220B2, “WNT signaling pathway inhibitors for treatments of disease” (University of Maryland, Baltimore, priority 2016, dated 2025).
“Also recorded” adds a separate entry of the source. Read-outs that look alike come from different tables or passages of the source. Values belong to the compound of their own block, whether it stands above or below them.

How the values were obtained:
[1] = tested on: HT-29 cells; test: colony formation assay; assay type: cell-based, human; conditions: 0-30 μM, 2 weeks
Experimental: (§1) Colony Formation Assay. HT-29 and SW620, SW480 cells were seeded into 6-well dishes with the medium containing 0, 1, 3, 10, 30 μM/L of YW2013 or YW2044, 500 cells/well. After 2 weeks, cells were fixed with 4% paraformaldehyde solution and stained with 0.5% crystal violet for 1 h at room temperature. The images of colonies were captured by microscopy.

[2] = tested on: WiDr, SW620, HT29, HEK_LTV, and T84 cell lines; test: cell proliferation and growth inhibition assay (CCK-8), cell line panel; assay type: cell-based, human; conditions: 72 h, FIG. 12
Experimental: Cell Proliferation and Growth Inhibition Assay. HT-29, HCT-116, WiDr, SW620, SW480, T84, A549, MCF-7, HepG2, Hela cells were cultured in respective growth medium. Cells of log phase were used. 3000-5000 cells/well were seeded in 96-well plates with a 100 μL volume. After 24 h, Compounds were dissolved to […] with DMSO, and a 3-fold serial dilution of the compounds from 5×10^−5 M to […] was performed. 2 μL of compound solution was added to 998 μL of growth medium, the mixture was vortexed sufficiently. 100 μL of the mixture was correspondingly added to the 96-well plate. 2 μL DMSO instead of compound solution was used as the 0% inhibitor control. After coincubation for 72 h, the old medium was removed and 100 μL of 10% CCK-8 in culture medium was added. 2 h later the plates were read in the microplate reader (Bio-Rad) at 450 nm. The data was calculated using Graph Pad Prism version 5.0. The IC50 were fitted using a nonlinear regression model with a sigmoidal dose response.

[3] = tested on: SW480 cells; test: Western blot of Wnt signaling proteins; assay type: cell-based, human; conditions: 48 h
Experimental: Using a Wester Blot, compounds YW2013 and YW2123 were tested in SW480 cells to determine their effect on the expression of Axin-2, β-catenin, and c-myc.
Western Blot: 1×10^6 Cells of SW480 cells were seeded into 6-well plates overnight. A concentration of 3, 10, 30 μM/L YW2013 and 3, 10 μM/L YW2123 was added after 24 h, medium with 1‰ DMSO was used as the control. Cells were exposed to treatment for 48 h. The dishes was washed twice using precold PBS and 100 μL of RIPA then added. After incubating plates on ice for 15 min, cells were scraped carefully and centrifuged for 10 minutes at 14,000 g at 4° C. immediately. The remaining supernatant and lysates were maintained at −70° C. A Bio-Rad protein assay kit (500-0002) was used to quantitate the cell lysates. The concentration was adjusted to 2 mg/ml. A ratio of 1:1 2× loading buffer was added and the samples were denatured by boiling. Protein samples were separated on 4-15% SDS-polyacrylamide gel (SDS-PAGE) and transferred onto the PVDF membranes (Millipore). Immune complexes were formed by incubation of the proteins with primary antibody β-catenin, c-myc, Axin-2, and GAPDH at 4° C. overnight. A second antibody with horseradish peroxidase (HRP, sigma) conjugated was used then. Blots were developed by enhanced chemiluminescence (Thermo).

[4] = tested on: SW620 cells; test: quantitative real-time RT-PCR of Wnt regulated genes; assay type: cell-based, human
Experimental: (§2) Quantitative Real-time RT-PCR. The total RNA extracted from the cells using TRIzol (Invitrogen) and 2 μg was reverse transcribed in a 20-μl volume system (QuantiTect Reverse Transcription Kit (Qiagen)) for quantitative PCR assays. SYBR green quantitative real-time PCR analyses were carried out using gene-specific primers (working concentration at 250 nM) in StepOnePlus real time PCR system (Applied Biosystems, AB), using the housekeeping gene GAPDH as an internal control. The PCR running procedure was as follows: 4 min denaturing at 95° C., followed by 40 cycles of 30 seconds of denaturing at 95° C. and then annealing and extension at 60° C. for 1 min.

[5] = plasma stability; assay type: in vitro ADME; conditions: mouse plasma, 37 degrees
Experimental: (§3) FIGS. 5A and 5B illustrate the metabolic stability of YW1149. S9 fraction from mouse liver tissues (FIG. 5A) and mouse plasma samples (FIG. 5B) were mixed with YW1149 and incubated at 37 degrees, respectively. *P<0.05 as compared to time 0.
(§4) The metabolic stability of these compounds was then estimated using YW1149 as a prototypical compound, with in vitro substrate depletion in mouse liver tissue S9 fraction as previously described (Jones and Houston, 2004).

[6] = tested on: Wnt/β-catenin pathway; test: dual-luciferase TCF/LEF reporter assay, LiCl-activated, HEK293 cells; assay type: cell-based; conditions: Homo sapiens; for activity at 1 µM: HEK293, 24 h, At 1 μM concentration, remaining Wnt signaling activity, read-out: RLU % (Relative Light Units in reporter gene assays); for IC50: HEK293
Experimental: Lithium chloride (LiCl), which has been previously established as an activator of the Wnt/β-catenin pathway through its direct and indirect effects on GSK3β was used for pathway activation. The inhibition of the Wnt/β-catenin pathway by a compound may be determined after its incubation with cells for 24 hours.
The assay provided herein is a dual-luciferase assay to measure Wnt/β-catenin pathway activation using a TCF/LEF responsive reporter construct similar to that described previously (Thorne et al., 2010).

[7] = tested on: HEK293 cells; test: cytotoxicity, Cell Counting Kit-8 colorimetric assay; conditions: Homo sapiens, HEK293, read-out: anti-proliferation IC50
Experimental: The cytotoxicity of series of a compound of the invention was measured using a colorimetric assay, Cell Counting Kit-8 (Sigma) in HEK293 cells.

[8] = metabolic stability, substrate depletion in liver S9 fraction; assay type: in vitro ADME, mouse; conditions: 37 degrees, after one hour
Experimental: as §3, §4

[9] = tested on: primary hepatocytes; test: glucose production in primary hepatocytes; assay type: cell-based
From the text: In light of this evidence, a class of triazole-based inhibitors were synthesized and tested, as described herein.

[10] = tested on: HepG2 cells; test: glucose production, G6P expression and AMPK phosphorylation; assay type: cell-based, human
[11] = in vivo
From the text: Representative data from each group is shown.
Blood samples were collected at multiple time points. […] Ultra-performance liquid chromatography system with a triple quadruple detector (UPLC/TQD) was used for compound quantitation.

[12] = tested on: HepG2 cells; test: expression of Wnt pathway proteins; assay type: cell-based, human; conditions: FIG. 3
Experimental: HepG2 cells were treated by YW1149 (vehicle, 0.1, 1 μM).

[13] = tested on: SW480 cells; test: mitochondrial function and morphology; assay type: cell-based, human
Experimental: FIG. 38B illustrates ATP production estimated from the OCR measurement. […] DHE fluorescence intensity was measured by using ImageJ. ˜300 cells were counted in each treatment.
Mitochondrial function and morphology was determined in SW480 cells treated with YW2065.

[14] = tested on: SW620 xenograft; test: SW620 xenograft tumor growth; assay type: in vivo, nude mice; conditions: i.p. 10 mg/kg or 50 mg/kg each day, 32 day study, vs vehicle
Experimental: FIG. 37A illustrates tumor growth measured during the study every other day. FIG. 37B illustrates tumor weight that was measured after mouse euthanization. FIG. 37C illustrates the change in mouse body weight during the study.
Six-week old nude mice were injected with 2×10^6 SW620 cells subcutaneously. 10 days after inoculation, mice received an i.p. injection of YW2065 at 10 mg/kg or 50 mg/kg or vehicle each day. The tumor growth (FIG. 37A) was measured every other day. The mice were euthanized at day 32, and tumors were weighed (FIG. 37B). Body weight change was monitored during the study (FIG. 37C).

[15] = tested on: Madin-Darby Canine Kidney (MDCK) epithelial cell monolayer; test: permeability across MDCK monolayer on transwell plates; assay type: in vitro ADME; conditions: data not shown
[16] = tested on: SW620 cells; test: Annexin-V/AAD-7 double-staining apoptosis assay; assay type: cell-based, human; conditions: SW620 cells, 0, 3, 10, 30 μM, 48 h
Experimental: Annexin-V/AAD-7 Double-Staining Assay. SW620 cells were treated with 0, 3, 10, 30 μM/L of YW2013 for 48 h. Then they were harvested and washed with PBS. Apoptotic cells were determined with an FITC Annexin V Apoptosis Detection Kit according to the manufacturer's protocol. Briefly, the cells were washed and subsequently incubated for 15 min at room temperature in the dark in 100 μL of 1× binding buffer containing 2 μL of Annexin V-FITC and 2 μL of AAD-7. After 30 min, apoptosis was analyzed by BD FACSCanto II Flow Cytometer.

[17] = tested on: SW480 cells; test: colony formation assay; assay type: cell-based, human; conditions: 0-30 μM, 2 weeks
Experimental: as §1

[18] = tested on: SW620 cells; test: colony formation assay; assay type: cell-based, human
Experimental: as §1

[19] = tested on: SW620 cells; test: cell cycle analysis by flow cytometry; assay type: cell-based, human; conditions: unsynchronized and synchronized, 24 h
Experimental: SW620 cells were treated with YW2013 at various concentrations (0, 1, 10 μM) to determine the effect of YW2013 on the SW620 cell cycle in an unsynchronized assay (FIG. 27A) and an assay where cells were treated with FBS free medium for 24 hours up to synchronization before adding YW2013 (FIG. 27B).
Cell Cycle Analysis. SW620 cells were plated in 6-well plates for 24 h, and the medium was replaced with medium containing 0, 1, 10, μM/L of YW2013. After incubation for 24 h, the cells were harvested by trypsinization and then fixed with 70% 4° C. ethanol. Intracellular DNA was stained with 50 ng/ml propidium iodide in the dark for 30 min at room temperature, and the percentages of different phase of cells were determined by flow cytometry (BD FACScan; BD Biosciences).

[20] = tested on: WiDr cells; test: quantitative real-time RT-PCR of Wnt regulated genes; assay type: cell-based, human
Experimental: as §2

[21] = tested on: A549 cells; test: as above; assay type: cell-based, human
Experimental: as §2

[22] = Table 3, values in nM, read-out: IC50
[23] = HepG2, 0.1 μM pyrvinium, 10 μM YW1149

SMILES: CCc1ccccc1-n1ncc(C(=O)Nc2ccc3ccccc3n2)c1C [YW2044, 1-(2-Ethylphenyl)-5-methyl-N-(quinolin-2-yl)-1H-pyrazole-4-carboxamide]
colony formation [1]: dose dependent reduction
growth inhibitory activity [2]: micromolar growth inhibitory activity
Axin-2 expression [3]: noticeable effect
mRNA expression of Wnt regulated genes (Axin-2 and/or cyclin D1) [4]: reduce mRNA expression

SMILES: COc1ccccc1-n1nnc(C(=O)Nc2ccc3ccccc3n2)c1C [YW1149, 1-(2-Methoxyphenyl)-5-methyl-N-(quinolin-2-yl)-1H-1,2,3-triazole-4-carboxamide]
stability in plasma [5]: stable in plasma for up to eight hours
activity at 1 µM [6]: 5%
IC50 ([6]; FIG. 1, cellular luciferase gene reporter assay, read-out: IC50, Wnt/β-catenin pathway inhibition): 74 nM
IC50 [6, 22]: 88 nM
IC50 [7]: > 100000 nM
metabolism in liver S9 fraction [8]: Only minor metabolism was observed after one hour
glucose production [9]: reduces glucose production
expression of glucose 6-phosphatase (G6P) [10, 23]: significantly suppress
glucose production [10, 23]: significantly suppress
phosphorylation of AMPK ([10]; HepG2 cells): increase phosphorylation
bioavailability ([11]; C57BL/6, mouse): 75%
intravenous half-life ([11]; mouse, iv, 10 mg/kg): one
Axin protein expression [12]: increased
β-catenin and target gene c-Myc protein [12]: attenuation

SMILES: Cc1c(C(=O)Nc2ccc3ccccc3n2)cnn1-c1ccccc1Br [YW2065, 1-(2-Bromophenyl)-5-methyl-N-(quinolin-2-yl)-1H-pyrazole-4-carboxamide]
ATP production (estimated from OCR) [13]: inhibited ATP production as a function of dosage
ROS generation (DHE staining) [13]: increased ROS generation
oxygen consumption rate (OCR) [13]: reduced oxygen consumption rate
mitochondrial morphology ([13]; 10 μM, 4 hours): caused short and punctuated mitochondria
tumor growth [14]: markedly inhibited tumor growth; also recorded: inhibited SW620 xenograft growth

IC50 [6, 22]: 9.6 nM
SMILES: Cc1ccccc1-n1ncc(C(=O)Nc2ccc3ccccc3n2)c1C [YW2013, 5-Methyl-N-(quinolin-2-yl)-1-(o-tolyl)-1H-pyrazole-4-carboxamide]
apical-to-basolateral and basolateral-to-apical flux [15]: significant apical-to-basolateral and basolateral-to-apical flux
apoptosis [16]: induced apoptosis in SW620 cells in a dose dependent manner
activity at 1 µM [6]: 1.9%
colony formation [17]: dose dependent reduction
colony formation ([18]; 0-30 μM, 2 weeks): dose dependent reduction
reduction in colony formation in combination ([18]; combined with Gefitinib): markedly increased when combined with Gefitinib
growth inhibitory activity [2]: micromolar growth inhibitory activity
expression of Axin-2, β-catenin, and c-myc [3]: visibly reduced
effect on cell cycle [19]: cell cycle arrest in the G1 and S phases
mRNA expression of Wnt regulated genes (Axin-2 and/or cyclin D1) [20]: reduced mRNA expression
mRNA expression of Wnt regulated genes (Axin-2 and/or cyclin D1) [4]: reduced mRNA expression
mRNA expression of Wnt regulated genes (Axin-2 and/or cyclin D1) [21]: reduced mRNA expression
